Here are results for 4 compounds from patent US3945994A, “Novel acid compounds” (Gist-Brocades N.V., priority 1973, dated 1976).

What all share (format): cell-based
The test system of test [1] is Bacillus subtilis ATCC 6633. As to conditions: ATCC6633, agar serial dilution, 24 hours at 37°C.
The test system of test [2] is Staphylococcus aureus A 321. The following applies: A321, agar serial dilution, 24 hours at 37°C.
Test [3] has as its system Staphylococcus aureus A 355'. As to conditions: agar serial dilution, 24 hours at 37°C.
For test [4], the system named is Staphylococcus aureus A 2000. As to conditions: A2000, agar serial dilution, 24 hours at 37°C.
In test [5] the test system is Staphylococcus aureus A 2001. The following applies: A2001, agar serial dilution, 24 hours at 37°C.
The subject of test [6] is Streptococcus haemolyticus A 266. As to conditions: A266, agar serial dilution, 24 hours at 37°C.
For test [7], the system named is Streptococcus faecalis L 80. As to conditions: Enterococcus faecalis, L80; agar serial dilution, 24 hours at 37°C.
The subject of test [8] is Diplococcus pneumoniae L 54. As to conditions: Streptococcus pneumoniae, L54; agar serial dilution, 24 hours at 37°C.
The test system of test [9] is Pasteurella multocida A 723. As to conditions: A723, agar serial dilution, 24 hours at 37°C.
In test [10] the test system is Klebsiella pneumoniae A 809. As to conditions: A809, agar serial dilution, 24 hours at 37°C.
In another test the test system is Salmonella dublin P 43. As to conditions: Salmonella enterica, P43; agar serial dilution, 24 hours at 37°C.
Test [11] relates to Salmonella typhimurium R 127. The following applies: Salmonella enterica, agar serial dilution, 24 hours at 37°C.
The next test has as its system Escherichia coli U 20. As to conditions: U20, agar serial dilution, 24 hours at 37°C.
Test [12] has as its system Pseudomonas aeruginosa H 10. As to conditions: H10, agar serial dilution, 24 hours at 37°C.
The test system of test [13] is Pseudomonas aeruginosa 2396. As to conditions: agar serial dilution, 24 hours at 37°C.
Test [14] has as its system Pseudomonas aeruginosa Wyeth A 1058. As to conditions: WYETHA1058, agar serial dilution, 24 hours at 37°C.
For a further test, the system named is Proteus rettgeri A 821. As to conditions: Providencia rettgeri, A821; agar serial dilution, 24 hours at 37°C.
A further test deals with Proteus mirabilis H 3. The following applies: H3, agar serial dilution, 24 hours at 37°C.
Another test concerns Proteus mirabilis A 1200. The following applies: A1200, agar serial dilution, 24 hours at 37°C.
The next test has as its system Proteus morganii 2241. As to conditions: Morganella morganii, agar serial dilution, 24 hours at 37°C.

Converted amounts (≈) assume the structure as drawn. A value given as a limit tells only on which side of the number the result lay.

`CC1(C)S[C@@H]2[C@H](NC(=O)[C@H](NC(=O)NS(=O)(=O)Nc3ccccc3)c3ccccc3)C(=O)N2[C@H]1C(=O)O` [VII, D-6-[α-{3-(phenylaminosulfonyl)-ureido}-benzylcarbonamido]-penicillanic acid]: the MIC in test [1] came out at 1 µg/mL (≈ 1.83 µM); in test [2], 1 µg/mL (≈ 1.83 µM); in test [3] it was 25 µg/mL (≈ 45.7 µM); in [4], 12.5 µg/mL (≈ 22.8 µM); in test [5], 3 µg/mL (≈ 5.48 µM); in test [6] it was 1 µg/mL (≈ 1.83 µM). Further, the MIC in test [7] turned out to be 25 µg/mL (≈ 45.7 µM); in test [8] it was 1 µg/mL (≈ 1.83 µM); in test [9], 25 µg/mL (≈ 45.7 µM); in [10] it was 25 µg/mL (≈ 45.7 µM); against Salmonella dublin P 43 it was 12.5 µg/mL (≈ 22.8 µM); in test [11], 25 µg/mL (≈ 45.7 µM). In addition, the MIC came to 12.5 µg/mL (≈ 22.8 µM) in the test with Escherichia coli U 20; 50 µg/mL (≈ 91.3 µM) in test [12]; 25 µg/mL (≈ 45.7 µM) in test [13]; 50 µg/mL (≈ 91.3 µM) in test [14]; 1.5 µg/mL (≈ 2.74 µM) with Proteus rettgeri A 821; 3 µg/mL (≈ 5.48 µM) against Proteus mirabilis H 3. The minimum inhibitory concentration (MIC) against Proteus mirabilis A 1200 stood at 3 µg/mL (≈ 5.48 µM); in the test with Proteus morganii 2241, 25 µg/mL (≈ 45.7 µM).

Take `CCOC(=O)CNS(=O)(=O)NC(=O)N[C@@H](C(=O)N[C@@H]1C(=O)N2[C@@H]1SC(C)(C)[C@@H]2C(=O)O)c1ccccc1` [X, D-6-[α-{3-(ethoxycarbonylmethylaminosulfonyl)-ureido}-benzylcarbonamido]-penicillanic acid]: the MIC amounted to 1 µg/mL (≈ 1.79 µM) in test [1]; 3 µg/mL (≈ 5.38 µM) in test [2]; 25 µg/mL (≈ 44.8 µM) in test [3]; 12.5 µg/mL (≈ 22.4 µM) in test [4]; 12.5 µg/mL (≈ 22.4 µM) in test [5]; 0.25 µg/mL (≈ 0.448 µM) in test [6]. The minimal inhibitory concentration (MIC) came out at 25 µg/mL (≈ 44.8 µM) in test [7]; 1.5 µg/mL (≈ 2.69 µM) in test [8]; 0.25 µg/mL (≈ 0.448 µM) in [9]; 100 µg/mL (≈ 179 µM) in [10]; 25 µg/mL (≈ 44.8 µM) in the test with Salmonella dublin P 43; 50 µg/mL (≈ 89.7 µM) in test [11]. Besides, the MIC in the test with Escherichia coli U 20 was 25 µg/mL (≈ 44.8 µM); in [12], > 100 µg/mL; in test [13] it was 100 µg/mL (≈ 179 µM); in test [14], 25 µg/mL (≈ 44.8 µM); in the test with Proteus rettgeri A 821, < 0.75 µg/mL; in the test on Proteus mirabilis H 3, 1.5 µg/mL (≈ 2.69 µM). Besides, the MIC against Proteus mirabilis A 1200 worked out at 3 µg/mL (≈ 5.38 µM); in the test on Proteus morganii 2241, 50 µg/mL (≈ 89.7 µM).

In the case of `Cc1noc(NS(=O)(=O)NC(=O)N[C@@H](C(=O)N[C@@H]2C(=O)N3[C@@H]2SC(C)(C)[C@@H]3C(=O)O)c2ccccc2)c1C` [XIII, D-6-[α-{3-(3,4-dimethylisoxazol-5-yl-aminosulfonyl)ureido}-benzylcarbonamido]-penicillanic acid], the MIC in [1] was 0.5 µg/mL (≈ 0.882 µM); in test [2], 1 µg/mL (≈ 1.76 µM); in test [3], 25 µg/mL (≈ 44.1 µM); in [4], 12.5 µg/mL (≈ 22.1 µM); in [5], 3 µg/mL (≈ 5.29 µM); in test [6], 0.12 µg/mL (≈ 0.212 µM). Moreover, the minimum inhibitory concentration (MIC) in test [7] is 12.5 µg/mL (≈ 22.1 µM); in test [8], 1.5 µg/mL (≈ 2.65 µM); in test [9] it was 0.12 µg/mL (≈ 0.212 µM); in test [10] it was 100 µg/mL (≈ 176 µM); in the test on Salmonella dublin P 43, 25 µg/mL (≈ 44.1 µM); in test [11] it was 50 µg/mL (≈ 88.2 µM). Further, the minimum inhibitory concentration (MIC) was found to be 12.5 µg/mL (≈ 22.1 µM) in the test with Escherichia coli U 20; 100 µg/mL (≈ 176 µM) in test [12]; 50 µg/mL (≈ 88.2 µM) in [13]; 25 µg/mL (≈ 44.1 µM) in test [14]; 3 µg/mL (≈ 5.29 µM) with Proteus rettgeri A 821; 12.5 µg/mL (≈ 22.1 µM) in the test on Proteus mirabilis H 3. In addition, the MIC in the test with Proteus mirabilis A 1200 was 6 µg/mL (≈ 10.6 µM); against Proteus morganii 2241, 100 µg/mL (≈ 176 µM).

For the compound `CCOC(=O)NS(=O)(=O)N[C@@H](C(=O)N[C@@H]1C(=O)N2[C@@H]1SC(C)(C)[C@@H]2C(=O)O)c1ccccc1` [XIX, D-6-[α-(ethoxycarbonylaminosulfonylamino)-benzylcarbonamido]-penicillanic acid], the MIC in test [1] was found to be 1 µg/mL (≈ 2 µM); in test [2], 3 µg/mL (≈ 5.99 µM); in test [3], 50 µg/mL (≈ 99.9 µM); in [4], 12.5 µg/mL (≈ 25 µM); in test [5] it was 6 µg/mL (≈ 12 µM); in test [6] it was 0.25 µg/mL (≈ 0.499 µM). The MIC in [7] is 25 µg/mL (≈ 49.9 µM); in test [8], 3 µg/mL (≈ 5.99 µM); in test [9], 0.5 µg/mL (≈ 0.999 µM); in test [10], > 100 µg/mL; with Salmonella dublin P 43, 50 µg/mL (≈ 99.9 µM); in test [11] it was 100 µg/mL (≈ 200 µM). In addition, the MIC was 100 µg/mL (≈ 200 µM) in the test on Escherichia coli U 20; > 100 µg/mL in test [12]; 100 µg/mL (≈ 200 µM) in test [13]; 50 µg/mL (≈ 99.9 µM) in test [14]; 3 µg/mL (≈ 5.99 µM) in the test with Proteus rettgeri A 821; 25 µg/mL (≈ 49.9 µM) in the test on Proteus mirabilis H 3. Also, the MIC is 25 µg/mL (≈ 49.9 µM) with Proteus mirabilis A 1200 and > 100 µg/mL in the test with Proteus morganii 2241.

As usually defined, the MIC is the lowest concentration that inhibits growth of the organism. Lower therefore signals greater potency.
